Experimental data as given in paper PMC4893628, “Chalcone-based Selective Inhibitors of a C4 Plant Key Enzyme as Novel Potential Herbicides” (Scientific Reports, 2016).
“And” between values parts separate entries of the source, which are not always exact repeats. Equal values may be shown once. Read-outs that look alike come from different tables or passages of the source.

Legend:
[1] = target: T1, F. trinervia PEPC (Flaveria trinervia, UniProt P30694); experiment: biochemical; assay type: biochemical; details: for Selectivity C4/C3: C4 PEPC over C3 isoform
T1 construct: the full-length ppcA gene of PEPC from F. trinervia (EMBL-Bank X61304); made in house; host or cells: Escherichia coli BL21(DE3)
T1 sequence (P30694 1-966): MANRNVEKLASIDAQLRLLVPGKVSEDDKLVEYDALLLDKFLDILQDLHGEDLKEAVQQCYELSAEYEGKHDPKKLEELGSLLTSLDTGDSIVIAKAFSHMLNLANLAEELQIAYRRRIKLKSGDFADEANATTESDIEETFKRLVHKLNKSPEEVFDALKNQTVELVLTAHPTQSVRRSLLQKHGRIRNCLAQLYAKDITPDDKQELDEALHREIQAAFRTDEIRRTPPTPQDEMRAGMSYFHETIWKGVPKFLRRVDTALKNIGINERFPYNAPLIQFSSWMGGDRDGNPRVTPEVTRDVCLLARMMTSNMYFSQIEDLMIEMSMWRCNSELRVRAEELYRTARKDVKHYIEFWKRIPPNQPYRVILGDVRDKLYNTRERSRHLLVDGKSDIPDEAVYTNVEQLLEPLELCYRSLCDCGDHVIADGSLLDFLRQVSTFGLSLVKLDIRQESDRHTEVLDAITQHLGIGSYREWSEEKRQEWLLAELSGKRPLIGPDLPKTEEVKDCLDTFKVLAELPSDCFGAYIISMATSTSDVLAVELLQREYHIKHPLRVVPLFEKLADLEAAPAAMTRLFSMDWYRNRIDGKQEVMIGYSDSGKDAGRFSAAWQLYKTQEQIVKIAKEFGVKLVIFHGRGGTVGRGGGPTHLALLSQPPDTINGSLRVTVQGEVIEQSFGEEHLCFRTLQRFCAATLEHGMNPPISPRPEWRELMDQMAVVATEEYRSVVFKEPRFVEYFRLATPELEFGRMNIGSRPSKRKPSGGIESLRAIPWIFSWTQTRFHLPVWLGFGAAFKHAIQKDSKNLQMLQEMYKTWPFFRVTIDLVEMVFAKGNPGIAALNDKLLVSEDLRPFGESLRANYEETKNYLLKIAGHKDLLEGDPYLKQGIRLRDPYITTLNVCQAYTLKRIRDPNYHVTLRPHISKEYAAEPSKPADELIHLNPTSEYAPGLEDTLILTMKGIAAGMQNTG
Method: The IC50 values of small molecule compounds on F. pringlei and F. trinervia PEPCs were determined using PEPC coupled spectrophotometric assay. The amount of NADH oxidized by NADH-malate dehydrogenase was measured by the decrease in absorbance at 340 nm in a Beckman DU-800 spectrophotometer, thus the value is in proportion to the corresponding substrate conversion of the enzyme. […] The reactions were started by adding two folds of the Km value of PEP for each enzyme. The data were analyzed using GraFit (Erithacus Software, UK).

[2] = tested on: Amaranthus retroflexus; experiment: In planta growth experiment, A. retroflexus; assay type: in vivo; details: for Influence on plants: shoots sprayed, 3 mM; for dry weight: six days after treatment, both experiments
Text: Seeds of Amaranthus retroflexus L. (Herbiseed, Twyford, UK) and Brassica napus L. cv. Mozart (Norddeutsche Pflanzenzucht Hans-Georg Lembke KG, Holtsee, Germany) were sown in vermiculite for germination. When cotyledons were fully expanded, seedlings were transplanted into plastic pots with a volume of 0.230 L filled with a substrate containing 50% bottom ash (0–4 mm), 30% peat and 20% pumice gravel (0–4 mm). Plants were watered every other day with 0.03% Hakaphos® Grün solution (Compo Expert GmbH, Münster, Germany) by sub-irrigation. Plants were grown in a climate chamber at 22 °C/20 °C day/night temperature and a day/night length of 16 h/8 h. Relative humidity was adjusted to 70% and light intensity was 320 μmol m^−2 s^−1 PAR (Photosynthetically Active Radiation) at plant level.
When seedlings reached the two-leaf growth stage, plant shoots were sprayed from the top with treatment solutions using spray bottles with a spraying angle of 35° (10 ml, neoLab Migge Laborbedarf-Vertriebs GmbH, Heidelberg, Germany). Treatment solutions were applied from a height of 8.5 cm above the pots. Each pot was sprayed once with a solution volume of 0.135 ml. Treatment solutions contained 2.4% (v/v) DMSO (dimethylsulfoxide, Duchefa Biochemie, Haarlem, the Netherlands), 0.1% (v/v) Tween® and the respective compound at a concentration of 3 mM. The control treatment contained 2.4% (v/v) DMSO, and 0.1% (v/v) Tween20. Further details are given in the Supplementary Information. […]
Experimental design and assessments of in planta experiments
We tested eleven compounds in a first experiment. In a follow-up experiment we tested selected […]
chalcone. Each treatment was repeated 12 times, except for oilseed rape in the second experiment (n=10). Pots were arranged in the growth chamber according to a fully randomized design. Initial growth of the second leaf of A. retroflexus plants was monitored by aquiring images of each plant from above from day zero to day two after treatment. Images were taken […]
from a fixed distance at 90° view angle using the camera Canon EOS 70D equipped with a Canon EF 14 mm/2.8 L II USM lens. Leaf area of single leaves was measured using the ImageJ software31, by drawing the leaf contours using a drawing tablet (Cintiq 22HD, Wacom Europe GmbH, Krefeld, Germany). Conversion of pixel to cm was achieved by using a target of known size inside the image. Six days after the treatment, half of the plants were harvested. Leaf area was assessed using a leaf area meter (LI3100C Area Meter, LI-Cor, Lincoln, Nebraska, USA) and samples were oven-dried at 65°C for seven days to obtain dry weight . Thirteen days after the treatment, this procedure was repeated with the second half of plants.
Chlorophyll fluorescence measurements […]
6 mm leaf discs were cut out of the second leaf and immediately placed into 96-well-plates filled with 300 µL 0.125 % Hoagland’s solution with 1 mM MES-KOH (MES-monohydrate, Merck, Darmstadt, Germany) buffered to a pH of 6.5. The treatment solution contained 1.6 % (v/v) DMSO, 0.1 % (v/v) Tween® 20 and 2',3',4',3,4-Pentahydroxychalcone at a concentration of 2 mM. The control treatment contained 1.6 % (v/v) DMSO, 0.1 % (v/v) Tween® 20. Each leaf disc was treated with 1.5 µL solution placed on top of the leaf discs. Plates were sealed with Parafilm and placed into a climate cabinet with 12h/12h day/night-length and a temperature of 22°C at a light intensity of 130 µmol m-2 s-1. 96 hours after treatment, chlorophyll fluorescence measurements were performed on leaf discs using an Imaging PAM M-Series fluorescence camera (Heinz Walz GmbH, Effeltrich, Germany). Leaf discs were dark adapted for 30 minutes, minimum and maximum chlorophyll fluorescence were obtained and leaf discs were illuminated for 30 minutes

[3] = IC50 F. trinervia PEPC, C4 PEPC
[4] = C4 PEPC, read-out: IC50 F. trinervia PEPC

Structure (SMILES)	Selectivity C4/C3 [1] [fold]	IC50 [1, 3] [µM]	Influence on plants [2]	IC50 [1, 4] [µM]	Selectivity C4/C3 ([1]; listed as 2′,3′,4′-Trihydroxychalcone)	dry weight [2]	lower inhibitory effect / weaker inhibitory potency compared to okanin (12) ([1]; C4 PEPC)	decreased / lower selectivity compared to okanin (12) ([1]; C4 vs. C3 PEPC)	lower IC50 value in comparison to 8–11 ([1]; C4 PEPC)
O=C(/C=C/c1ccccc1)c1ccccc1 [Compound 1, trans-Chalcone]	1.5	77.5 ± 2.7	No						
O=C(/C=C/c1ccccc1)c1ccccc1O [Compound 2, 2′-Hydroxychalcone]	1.5	51.9 ± 15	No						
O=C(/C=C/c1ccc(O)cc1)c1ccccc1O [Compound 3, 2′,4-Dihydroxychalcone]	1.6		No	39.8 ± 4.2					
O=C(/C=C/c1ccccc1)c1ccc(O)cc1O [Compound 4, 2′,4′-Dihydroxychalcone]	2.1		No	25.2 ± 1.3					
O=C(/C=C/c1ccccc1)c1cc(O)ccc1O [Compound 5, 2′,5′-Dihydroxychalcone]			No	42.1 ± 11.3					
O=C(/C=C/c1ccc(O)cc1)c1ccc(O)cc1O [Compound 6, 2′,4′,4-Trihydroxychalcone]	1.5	38.2 ± 10.9	No						
O=C(/C=C/c1ccccc1O)c1ccc(O)cc1O [Compound 7, 2′,4′,2-Trihydroxychalcone]	2.3		No	28.2 ± 2.2					
O=C(/C=C/c1ccc(O)c(O)c1)c1ccc(O)cc1O [Compound 8, 2′,4′,3,4-Tetrahydroxy-chalcone]	29		No	2.2 ± 0.2					
O=C(/C=C/c1cc(O)c(O)c(O)c1)c1ccc(O)cc1O [Compound 9, 2′,4′,3,4,5-Pentahydroxychalcone]	8.1		No	4.2 ± 1.4					
O=C(/C=C/c1ccccc1)c1ccc(O)c(O)c1O [Compound 10, 2′,3′,4′-Trihydroxychalcone]	15	4.2 ± 1.5	Yes		15–45 fold	significantly reduced			
O=C(/C=C/c1ccc(O)c(O)c1)c1c(O)cc(O)cc1O [Compound 11, 2′,4′,6′,3,4-Pentahydroxy-chalcone]	3.3		No	2.5 ± 0.1			~ four	~ 14 fold and ~ 13 fold	
O=C(/C=C/c1ccc(O)c(O)c1)c1ccc(O)c(O)c1O [Compound 12, 2′,3′,4′,3,4-Pentahydroxy-chalcone]		0.6 ± 0.1	Yes			significantly reduced			~ 5 fold
